The values below come from publication PMC9781117, “New 5-Aryl-1,3,4-Thiadiazole-Based Anticancer Agents: Design, Synthesis, In Vitro Biological Evaluation and In Vivo Radioactive Tracing Studies” (Pharmaceuticals, 2022).

Assay [1] concerns MCF-7 breast adenocarcinoma cells. In words: MTT cytotoxicity assay, MCF-7. The assay is classed as cell-based, human. As to conditions: for IC50: Homo sapiens, MCF7, MTT, 48 h, means ± SD of three independent experiments; for SI Values MCF-7: selectivity index, MCF-7 over normal Vero cells. The method, then: (§1) The in vitro cytotoxicity of the synthesized 1,3,4-thiadiazole derivatives against breast adenocarcinoma cells (MCF-7) and human hepatocellular carcinoma (HepG2) cell lines were evaluated by the MTT assay, using 5-Fluorouracil (5-FU) as a positive control.
(§2) Human hepatocellular carcinoma (HepG2) cells and breast adenocarcinoma (MCF7) cells were purchased from the American Type Culture Collection (ATCC, USA). Under 37 °C with 5% CO2 in a humid incubator, cells were propagated using RPMI supplemented with 10% fetal bovine serum (FBS) and 1% v/v penicillin-streptomycin.
(§3) According to Tim Mosmann’s approach, an MTT assay was performed to assess the antiproliferative properties of the compounds. In short, HepG2 or MCF7 cells (0.5 × 105) were grown in flat-bottom 96-well microplates in 180 μL/well RPMI media supplemented with 10% fetal bovine serum, 2μmol/mL L-glutamine, 250 ng/mL fungizone, and 100 units/mL penicillin-streptomycin solutions at 37 °C in a CO2 incubator. Following incubation, 180 μL/well of the new serum-free medium was added to each well after the old media had been withdrawn. After that, cells were exposed to 20 μL of various concentrations of the compounds (50–0.75 μg/mL) and were incubated for 48 h at 37 °C in a humidified 5% CO2 environment. The MTT solution (20 µL/well) was added and incubated for a further 4 h. The plate was agitated at room temperature while acidified isopropanol (160 μL/well) was added to dissolve the formazan crystals. The absorbance at 570 nm was then determined photometrically using the microplate ELISA reader (FLUOstar Omega, BMG, Labtech, Germany). Graph-Pad PRISM version 6 was used to determine the IC50 for each compound.
In general terms: Tetrazolium assays rely on reduction of a dye to a coloured formazan, in cell work by metabolically active cells.

The subject of assay [2] is HepG2 human hepatocellular carcinoma cells. In words: MTT cytotoxicity assay, HepG2. Type of assay: cell-based. As to conditions: for IC50: Homo sapiens, MTT, 48 h, means ± SD of three independent experiments; for SI Values HepG2: selectivity index, HepG2 over normal Vero cells. The method, then: as §1, §2, §3
The subject of assay [3] is normal mammalian Vero cells. In words: Cytotoxicity against normal Vero cells. The assay is classed as cell-based. As to conditions: Chlorocebus sabaeus.
Assay [4] has as its system HepG2 cells. In words: AO/EB fluorescent stain, apoptotic and necrotic cells, HepG2. Type of assay: cell-based, human. To be noted: HepG2, IC50 concentration, 48 h, vs untreated control cells. The method, then:
(§4) Morphologically, there are three different modes of cell death: apoptosis, autophagy, and necrosis (types I, II, and III, respectively).
(§5) Fluorescence labeling with acridine orange/ethidium bromide (AO/EB) was used to determine the ratio between apoptosis and necrosis to evaluate the mode of cell death. HepG2 and MCF-7 cells were seeded in six-well plates with DMEM media supplemented with 10% FBS and allowed to settle overnight at 37 °C with 5% CO2 in a humidified incubator. […] 5-FU was used as a positive standard for both cell lines. After incubation, cells were collected by trypsinization and stained using a dye solution of AO and EB in PBS (1:1) for 20 min. The cells were examined using fluorescence microscopy. Each sample had at least 500 counted cells, and the percentage of apoptotic or necrotic cells was determined by […] the number of apoptotic or necrotic cells by the total number of cells counted by 100. The experiment was performed three times in triplicate.

Assay [5] concerns HepG2 cells. In words: Annexin V-FITC/PI flow cytometric apoptosis analysis, HepG2. Type of assay: cell-based, human. As to conditions: HepG2, IC50 concentration, 48 h. The text has this:
(§6) Propidium iodide (PI) and annexin-V-FITC were used in a flow cytometric investigation on HepG2 and MCF-7 cells to better understand the manner of cell death caused by 4e and 4i, respectively. […] Apoptosis evasion is one of the hallmarks of cancer progression because the loss of apoptosis control prolongs cancer cell survival and allows for the accumulation of mutations that can promote angiogenesis and cell proliferation, disrupt differentiation, and increase invasiveness throughout tumor progression, thus one of the key purposes of apoptosis is to prevent cancer.
(§7) The apoptotic activity of compounds 4e and 4i was measured using the annexin V fluorescein isothiocyanate (FITC)/propidium iodide (PI) apoptosis detection kit (BioVision, USA, Catalog #: K101-25) following the manufacturer’s instructions. […] Cells were collected by trypsinization, washed twice using PBS and then 1 × 10^5 cells were resuspended in PBS and stained for 15 min at room temperature in the dark with 5 µL Annexin V-FITC and 5 µL PI in 1x binding buffer. Annexin V-FITC binding was analyzed by a BD FACS Calibur flow cytometry (Ex = 488 nm; Em = 530 nm) using a FITC signal detector (FL1) and PI staining by the phycoerythrin emission signal detector (FL2).
On the technique in general: A flow cytometer gives signals particle by particle.

Assay [6] concerns HepG2 cells. In words: Cell cycle analysis by flow cytometry (PI), HepG2. Type of assay: cell-based, human. As to conditions: HepG2, IC50 concentration, 48 h, vs control. The method, then: (§8) The cell cycle is made up of several intricately linked processes that enable the cell to develop and multiply. In cancer, the genetic and epigenetic abnormalities in the cell cycle-related genes result in an unchecked proliferation of mutated cells and alteration of cell cycle progression. For further investigation of the inhibitory effects of 4e and 4i compounds on the proliferation of HepG2 and MCF-7 cells, respectively, we examined the cell cycle distribution and DNA content after 48 h of the treatment. […] Consequently, the arrest in the G2/M phase mediates apoptosis via a mitochondrial apoptotic pathway.
(§9) Immediately after incubation, trypsinization was used to collect the cells, which were then washed twice with ice-cold PBS before being fixed in 70% (v/v) ethanol at […], re-suspended with 0.1 mg/mL RNase, stained with […] propidium iodide (PI), and incubated for 1 h. The DNA contents of the cells were then analyzed by flow cytometry using an FL2 (λex/em 493/636 nm) signal detector (Abcam, UK, ab139418).

For assay [7], the system named is Bax/Bcl-2 ratio in HepG2 cells. In words: ELISA Bax/Bcl-2 ratio, HepG2. The assay is classed as cell-based, human. To be noted: HepG2, IC50, 48 h, compared to control and 5-FU treated cells. The text has this:
(§10) The overexpression of antiapoptotic proteins, such as Bcl-2, and the underexpression of proapoptotic proteins, such as Bax, are two common ways that the apoptotic pathway is suppressed in cancer. […] Therefore, a rise in Bax expression and a decrease in Bcl-2 can trigger the apoptotic process and eradicate cancer cells. […] This in turn activates the intrinsic pathway of apoptosis; thus, we next examined their effect on caspase 9 levels. Caspases (cysteine aspartyl-specific proteases), a class of cysteine proteins that cleave target proteins, play a role in executing apoptosis. […] Moreover, we evaluated the effect of the two compounds on the vascular endothelial growth factor VEGF expression. VEGF is one of the pro-angiogenic proteins; upon binding to VEGF receptors in the endothelial cells, it activates phosphorylation, causing increased angiogenesis and resulting in abnormal vasculature in the tumor tissue.
(§11) The protein levels of Bax, Bcl2, caspase 9, and VGEF were estimated using an ELISA assay. […] Cells from each group were scraped off and washed with PBS and then cell pellets were collected from each flask. […] The supernatants were then used for ELISA assays in accordance with the manufacturer’s instructions for the ELISA kits (Sunlong Biotech, China), and absorbance and calculations were carried out using an ELISA reader (FLUOstar Omega, BMG, Labtech, Germany).
A general note: In an ELISA, binding on a coated surface is turned into a signal by an enzyme label.

The subject of another assay is caspase 9 in HepG2 cells. In words: ELISA caspase 9 level, HepG2. Type of assay: cell-based, human. As to conditions: HepG2, IC50, 48 h.
Excerpt: as §10, §11

The next assay concerns VEGF in HepG2 cells. Nature of the assay: ELISA VEGF level, HepG2. The assay is classed as cell-based, human. As to conditions: HepG2, IC50, 48 h, compared to control and 5-FU treated cells.
Excerpt: as §10, §11

A further assay has as its system lung A549 cancer cells. Also on record: method as in PMID 31313595. As to conditions: cited from earlier work.
The subject of assay [8] is cervical HeLa cancer cells. Also on record: method as in PMID 31313595. To be noted: cited from earlier work.
Assay [9] relates to MCF-7 cells. Nature of the assay: AO/EB fluorescent stain, apoptotic and necrotic cells, MCF-7. The assay is classed as cell-based, human. To be noted: MCF-7, IC50 concentration, 48 h, vs untreated control cells. The protocol:
as §4, §5

Assay [10] has as its system MCF-7 cells. Nature of the assay: Annexin V-FITC/PI flow cytometric apoptosis analysis, MCF-7. The assay is classed as cell-based, human. To be noted: MCF-7, IC50 concentration, 48 h.
Excerpt: as §6, §7

The test system of assay [11] is MCF-7 cells. In words: Cell cycle analysis by flow cytometry (PI), MCF-7. The assay is classed as cell-based, human. To be noted: MCF-7, IC50 concentration, 48 h, vs control, p < 0.05. The protocol:
as §8, §9

The subject of assay [12] is Bax/Bcl-2 ratio in MCF-7 cells. Nature of the assay: ELISA Bax/Bcl-2 ratio, MCF-7. Type of assay: cell-based, human. As to conditions: MCF-7, IC50, 48 h, compared to control and 5-FU treated cells.
Excerpt: as §10, §11

The next assay has as its system caspase 9 in MCF-7 cells. Nature of the assay: ELISA caspase 9 level, MCF-7. Type of assay: cell-based, human. To be noted: MCF-7, IC50, 48 h.
Excerpt: as §10, §11

A further assay relates to VEGF in MCF-7 cells. In words: ELISA VEGF level, MCF-7. The assay is classed as cell-based, human. As to conditions: MCF-7, IC50, 48 h, compared to control and 5-FU treated cells.
Excerpt: as §10, §11

The subject of assay [13] is breast cancer MCF-7 cells. Also on record: method as in PMID 31313595. As to conditions: cited from earlier work.

≈ marks a conversion by molar mass, not a printed value.

As a reminder, the IC50 is the point on the concentration scale where inhibition reaches its midpoint. In the case of `CCOc1ccccc1N1CCN(CC(=O)Nc2nnc(-c3ccc(Cl)cc3)s2)CC1` [Compound 4e, N-(5-(4-Chlorophenyl)-1,3,4-Thiadiazol-2-yl)-2-(4-(2-Ethoxyphenyl)Piperazin-1-yl)Acetamide], the IC50 was 5.36 ± 0.36 µg/mL (≈ 11.7 µM) in assay [1], 3.13 ± 0.2 µg/mL (≈ 6.83 µM) in assay [2] (HepG2) and 154 ± 32.2 µg/mL (≈ 337 µM) in assay [3]. The “SI Values MCF-7” value in assay [1] is 28.79. In assay [2] (HepG2, 4b vs 4a, 4e vs 4f), the “fold increase in efficacy relative to parent analogue” value is 12 fold. Further, the “SI Values HepG2” value in assay [2] is 49.20. In the assay on HepG2 cells [4], the “apoptosis and necrosis (AO/EB stain)” value is “significantly enhanced apoptosis and necrosis”. Also, the “main mode of cell death (annexin-V/PI)” value in the assay with HepG2 cells [5] is “apoptosis”. Besides, the “total cell death (annexin-V/PI)” value with HepG2 cells [5] (vs untreated cells) is “induced significant total cell death”. In the assay on HepG2 cells [6], the cell cycle arrest result was “significantly arrested HepG2 cells in the S phase”. In addition, in assay [7], the Bax/Bcl-2 ratio entry was “significant increase”. Moreover, in the assay on caspase 9 in HepG2 cells, the “caspase 9 level” value is “significantly enhanced”. Besides, the VEGF level entry with VEGF in HepG2 cells is on record as “significantly suppressed”.
Take `CC(C)(C)c1nc(NC(=O)CN2CCN(c3ccccc3)CC2)sc1Cc1ccc(Cl)cc1` [VII]: the IC50 in the assay on lung A549 cancer cells was 0.2 µM; in assay [8], 4.2 µM.
Turning to `O=C(CN1CCC(Cc2ccccc2)CC1)Nc1nnc(-c2ccc(Cl)cc2)s1` [Compound 4i, 2-(4-Benzylpiperidin-1-yl)-N-(5-(4-Chlorophenyl)-1,3,4-Thiadiazol-2-yl)Acetamide], the IC50 in assay [1] was 2.32 ± 0.21 µg/mL (≈ 5.43 µM); in assay [2] (HepG2), 6.51 ± 0.03 µg/mL (≈ 15.2 µM); in [3], 85.29 ± 0.52 µg/mL (≈ 200 µM). Besides, the “SI Values MCF-7” value in [1] was 36.70. Besides, the “SI Values HepG2” value in [2] turned out to be 13.10. Moreover, in the assay with MCF-7 cells [9], the “apoptosis and necrosis (AO/EB stain)” value is “significantly enhanced apoptosis and necrosis”. Moreover, the “main mode of cell death (annexin-V/PI)” value in the assay on MCF-7 cells [10] was “apoptosis”. For the same compound, the “total cell death (annexin-V/PI)” value in the assay with MCF-7 cells [10] (vs untreated cells) was “induced significant total cell death”. The cell cycle arrest result with MCF-7 cells [11] is “induced a significant cell growth arrest for MCF-7 cells at the G2/M phase”. For the same compound, the Bax/Bcl-2 ratio result in assay [12] is “significant increase”. In addition, in the assay on caspase 9 in MCF-7 cells, the “caspase 9 level” value is reported as “significantly enhanced”. The VEGF level result in the assay with VEGF in MCF-7 cells is given as “significantly suppressed”.
As for `CCN1CCN(CC(=O)Nc2nc(C(C)(C)C)c(Cc3ccc(Cl)cc3)s2)CC1` [VI], in assay [13], the IC50 is 12.5 µM.
